In one assay the test system is HCT-116. In words: MTT antiproliferative assay, HCT-116. Conditions: 72 h, colorectal carcinoma HCT-116. In kind it is cell-based, human. As to the method:
(§1) The colorimetric MTT (3-(4,5-dimethylthiazol-2-yl)-2,5-diphenyltetrazolium bromide) assay was used to measure the cell viability of all of the above cell lines following treatment with target hybrids. Exponentially growing cells were added into 96-well plates at a concentration of 2000–4000 cells per well. Following attachment the cells were treated with varying concentrations (64, 16, 4, 1, 0.25, 0.0625 and 0.015625 µM) of target compounds in media and were kept for incubation for 72 h. MTT (20 µL, 5 mg/mL in PBS) was added to each well and the cells were incubated for another 3 h at 37 °C. Then the medium was removed, followed by the addition of 150 µL DMSO for each well. After that, the absorbance (OD) data of each well at 570 nm wavelength were measured by a Microplate Reader (BIO-RAD), and half inhibition rates (IC50) were calculated[59]^,[60].
In general terms: Tetrazolium dyes change colour on reduction, which living cells bring about.

A further assay has as its system MCF-7. In words: MTT antiproliferative assay, MCF-7. In kind it is cell-based, human. Conditions: breast carcinoma MCF-7. The method, then: as §1
The next assay relates to HepG2. In words: MTT antiproliferative assay, HepG2. In kind it is cell-based, human. Conditions: 72 h, hepatoma HepG2. As to the method:
as §1

A further assay deals with PBMC. In words: MTT assay, peripheral blood mononuclear cells. In kind it is cell-based, human. Conditions: 72 h. As to the method: as §1
Another assay has as its system L-02. In words: MTT assay, normal hepatic L-02 cell line. Conditions: human normal hepatic L-02 cell line. The assay is classed as cell-based. As to the method:
as §1

A further assay concerns B16. In words: MTT antiproliferative assay, B16. The assay is classed as cell-based. Conditions: 72 h, melanoma B16. The method, then:
as §1

A further assay relates to K562. In words: MTT antiproliferative assay, K562. The assay is classed as cell-based, human. Conditions: 72 h, chronic myeloid leukaemia K562. As to the method: as §1

Some results are limits rather than exact numbers.

As a reminder, the IC50 is the concentration needed to halve the response being measured. A lower IC50 goes with inhibition by little substance.

In the case of “4-(3-((3-Carboxy-6-methyl-4-oxo-4H-chromen-2-yl)amino)propoxy)-3-(phenylsulfonyl)-1,2,5-oxadiazole 2-oxide [12d]”, the IC50 with HCT-116 is 8.64 ± 0.58 µM; in the assay on MCF-7 (72 h), 15.9 ± 0.66 µM; in the assay with HepG2, 7.91 ± 0.4 µM; in the assay with PBMC, more than 50 µM; with L-02 (72 h) it was 33.6 ± 2.95 µM; with B16, 9.96 ± 0.67 µM. The same molecule showed an IC50 in the assay on K562 of 4.94 ± 0.25 µM.

As to “4-(2-(6-Methoxy-4-oxo-4H-chromene-3-carboxamido)ethoxy)-3-(phenylsulfonyl)-1,2,5-oxadiazole 2-oxide [13a]”, the IC50 is 13.2 ± 0.53 µM in the assay with HCT-116; 22.1 ± 1.38 µM with MCF-7 (72 h); 10.6 ± 0.72 µM in the assay with HepG2; more than 50 µM with PBMC; more than 50 µM in the assay on L-02 (72 h); 16.8 ± 0.74 µM in the assay with B16. In the assay on K562, this molecule came in with an IC50 of 5.89 ± 0.26 µM.

As to `COc1ccc2oc(N3CCN(CCOc4no[n+]([O-])c4S(=O)(=O)c4ccccc4)CC3)c(C(=O)O)c(=O)c2c1` [15d, 4-(2-(4-(3-Carboxy-6-methoxy-4-oxo-4H-chromen-2-yl)piperazin-1-yl)ethoxy)-3-(phenylsulfonyl)-1,2,5-oxadiazole 2-oxide], the IC50 in the assay with HCT-116 (Homo sapiens) is 12.9 ± 1.02 µM; in the assay on MCF-7 (Homo sapiens, MCF7, 72 h), 16.9 ± 1.29 µM; in the assay on HepG2 (Homo sapiens) it was 9.56 ± 2.37 µM; with PBMC (Homo sapiens, PBMC) it was more than 50 µM; with L-02 (L02, 72 h), more than 50 µM; with B16, 35 ± 1.25 µM. In addition, it took 4.07 ± 0.39 µM to reach half-maximal inhibition in the assay with K562 (Homo sapiens) (IC50).

For the molecule `Cc1ccc2occ(C(=O)O)c(=O)c2c1` [compound 10], the IC50 with HCT-116 (Homo sapiens) is more than 50 µM; in the assay on MCF-7 (Homo sapiens, MCF7, 72 h) it was more than 50 µM; with HepG2 (Homo sapiens) it was more than 50 µM; in the assay with PBMC (Homo sapiens, PBMC), more than 50 µM; in the assay with L-02 (L02, 72 h) it was more than 50 µM; in the assay on B16, more than 50 µM. This molecule also displayed an IC50 in the assay on K562 (Homo sapiens) of more than 50 µM.

Turning to `COc1ccc2occ(C(=O)N3CCN(CCOc4no[n+]([O-])c4S(=O)(=O)c4ccccc4)CC3)c(=O)c2c1` [15c, 4-(2-(4-(6-Methoxy-4-oxo-4H-chromene-3-carbonyl)piperazin-1-yl)ethoxy)-3-(phenylsulfonyl)-1,2,5-oxadiazole 2-oxide], the IC50 in the assay on HCT-116 (Homo sapiens) was 22.4 ± 1.72 µM; in the assay with MCF-7 (Homo sapiens, MCF7, 72 h), 37.6 ± 2.24 µM; with HepG2 (Homo sapiens) it was 25.6 ± 1.57 µM; in the assay on PBMC (Homo sapiens, PBMC), more than 50 µM; in the assay with L-02 (L02, 72 h), more than 50 µM; in the assay with B16, 23.5 ± 1.61 µM. In the assay on K562 (Homo sapiens), this molecule came in with an IC50 of 8.93 ± 0.36 µM.

For the molecule “4-(3-(6-Methyl-4-oxo-4H-chromene-3-carboxamido)propoxy)-3-(phenylsulfonyl)-1,2,5-oxadiazole 2-oxide [12c]”, the IC50 in the assay on HCT-116 was 25.4 ± 1.76 µM; in the assay on MCF-7 (72 h), more than 50 µM; in the assay with HepG2 it was 21.5 ± 1.23 µM; with PBMC it was more than 50 µM; with L-02 (72 h) it was more than 50 µM; in the assay with B16 it was 26.9 ± 1.08 µM. The molecule also returned an IC50 in the assay with K562 of 12.5 ± 0.77 µM.

On to “4-(2-((3-Carboxy-6-methyl-4-oxo-4H-chromen-2-yl)amino)ethoxy)-3-(phenylsulfonyl)-1,2,5-oxadiazole 2-oxide [12b]”, for which the IC50 is 26.9 ± 1.61 µM with HCT-116; 26.6 ± 1.6 µM in the assay with MCF-7 (72 h); 21.3 ± 1.58 µM with HepG2; more than 50 µM in the assay on PBMC; more than 50 µM in the assay with L-02 (72 h); 31.4 ± 1.34 µM with B16. For the same molecule, in the assay with K562, the IC50 was found to be 12.5 ± 1.03 µM.

Consider `Cc1ccc2occ(C(=O)NCCOc3no[n+]([O-])c3S(=O)(=O)c3ccccc3)c(=O)c2c1` [12a, (2-(6-Methyl-4-oxo-4H-chromene-3-carboxamido)ethoxy)-3-(phenylsulfonyl)-1,2,5-oxadiazole 2-oxide], for which the IC50 in the assay with HCT-116 (Homo sapiens) is more than 50 µM; in the assay with MCF-7 (Homo sapiens, MCF7, 72 h), more than 50 µM; in the assay with HepG2 (Homo sapiens), more than 50 µM; in the assay on PBMC (Homo sapiens, PBMC), more than 50 µM; in the assay with L-02 (L02, 72 h) it was more than 50 µM; with B16, more than 50 µM. In the assay on K562 (Homo sapiens), the IC50 was more than 50 µM.

“4-(2-(4-(3-Carboxy-6-methyl-4-oxo-4H-chromen-2-yl)piperazin-1-yl)ethoxy)-3-(phenlsulfonyl)-1,2,5-oxadiazole 2-oxide [14d]”: the IC50 was 7.87 ± 0.32 µM in the assay with HCT-116; 13.8 ± 0.49 µM in the assay on MCF-7 (72 h); 5.38 ± 0.19 µM in the assay with HepG2; more than 50 µM in the assay on PBMC; 28.9 ± 1.43 µM in the assay with L-02 (72 h); 11.7 ± 0.52 µM in the assay with B16. Moreover, the concentration for half-maximal inhibition (IC50) with K562 came out at 2.75 ± 0.17 µM.

Take `COc1ccc2occ(C(=O)O)c(=O)c2c1` [compound 11]: the IC50 in the assay with HCT-116 (Homo sapiens) was more than 50 µM; in the assay with MCF-7 (Homo sapiens, MCF7, 72 h), more than 50 µM; with HepG2 (Homo sapiens), more than 50 µM; in the assay on PBMC (Homo sapiens, PBMC), more than 50 µM; with L-02 (L02, 72 h), more than 50 µM; with B16, more than 50 µM. The IC50 with K562 (Homo sapiens) is more than 50 µM.

Consider `NCCOc1no[n+]([O-])c1S(=O)(=O)c1ccccc1` [5a, 4-(2-aminoethoxy)-3-(phenylsulfonyl)-1,2,5-oxadiazole-2-oxide], for which the IC50 with HCT-116 (Homo sapiens) is 29.9 ± 1.47 µM; with MCF-7 (Homo sapiens, MCF7, 72 h), more than 50 µM; with HepG2 (Homo sapiens), 21.8 ± 1.35 µM; in the assay on PBMC (Homo sapiens, PBMC), more than 50 µM; with L-02 (L02, 72 h), more than 50 µM; with B16, 27.9 ± 1.23 µM. This molecule also came in with an IC50 in the assay on K562 (Homo sapiens) of 18.9 ± 0.73 µM.

On to `O=c1[nH]cc(F)c(=O)[nH]1` [5-Fu, fluorouracil, reference compound], for which the IC50 was 6.86 ± 0.37 µM in the assay with HCT-116 (Homo sapiens); 26.7 ± 1.92 µM in the assay on MCF-7 (Homo sapiens, MCF7, 72 h); 32.6 ± 1.98 µM in the assay on HepG2 (Homo sapiens); more than 50 µM in the assay on PBMC (Homo sapiens, PBMC); more than 50 µM in the assay on L-02 (L02, 72 h); 12.6 ± 1.06 µM in the assay on B16. Further, the 50% inhibitory concentration (IC50) in the assay with K562 (Homo sapiens) was 3.94 ± 0.17 µM.

On to “4-(2-((3-Carboxy-6-methoxy-4-oxo-4H-chromen-2-yl)amino)ethoxy)-3-(phenylsulfonyl)-1,2,5-oxadiazole 2-oxide [13b]”, for which the IC50 in the assay with HCT-116 is 26.9 ± 1.4 µM; with MCF-7 (72 h), 24.8 ± 1.28 µM; in the assay with HepG2, 22.6 ± 1.39 µM; with PBMC, more than 50 µM; with L-02 (72 h), more than 50 µM; in the assay on B16 it was 26.8 ± 1.22 µM. It took 13.6 ± 0.76 µM to reach half-maximal inhibition in the assay on K562 (IC50).

As for “4-((1-((3-Carboxy-6-methyl-4-oxo-4H-chromen-2-yl)amino)propan-2-yl)oxy)-3-(phenylsulfonyl)-1,2,5-oxadiazole 2-oxide [14b]”, the IC50 with HCT-116, with MCF-7 (72 h), in the assay with HepG2, in the assay on PBMC, with L-02 (72 h) and in the assay on B16 was more than 50 µM in each case. In addition, the IC50 in the assay with K562 was more than 50 µM.

On to `COc1ccc2occ(C(=O)NCCCOc3no[n+]([O-])c3S(=O)(=O)c3ccccc3)c(=O)c2c1` [13c, 4-(3-(6-Methoxy-4-oxo-4H-chromene-3-carboxamido)propoxy)-3-(phenylsulfonyl)-1,2,5-oxadiazole 2-oxide], for which the IC50 is more than 50 µM with HCT-116 (Homo sapiens); more than 50 µM in the assay with MCF-7 (Homo sapiens, MCF7, 72 h); more than 50 µM with HepG2 (Homo sapiens); more than 50 µM in the assay with PBMC (Homo sapiens, PBMC); more than 50 µM in the assay with L-02 (L02, 72 h); more than 50 µM in the assay with B16. Further, the IC50 in the assay on K562 (Homo sapiens) was more than 50 µM.

For “2-((1-(6-Methyl-4-oxo-4H-chromene-3-carboxamido)propan-2-yl)oxy)-3-(phenylsulfonyl)-1,2,5-oxadiazole 2-oxide [14a]”, the IC50 was 29.6 ± 1.48 µM in the assay on HCT-116; more than 50 µM with MCF-7 (72 h); 19.9 ± 1.31 µM with HepG2; more than 50 µM in the assay with PBMC; more than 50 µM in the assay with L-02 (72 h); 27.9 ± 1.23 µM in the assay on B16. In the assay with K562, this molecule returned an IC50 of 13.6 ± 0.85 µM.

The record behind these values is paper PMC7144234, “Antiproliferative chromone derivatives induce K562 cell death through endogenous and exogenous pathways” (Journal of Enzyme Inhibition and Medicinal Chemistry, 2020).
